This note sets out measurements from US20250204555A1, “FEED AND METHODS FOR CONTROLLING INTESTINAL TRACT PARASITIC WORM INFECTIONS IN MAMMALS” (In the Bowl Animal Health, priority 2022, published 2025).

Common to all, as to format: in vivo
Assay [1] concerns Toxocara canis. Briefly: Efficacy of monepantel per os to dogs against Toxocara canis (fecal egg counts). As to conditions: oral liquid formulation, 0.125, 0.25 or 0.5 mg/kg daily Days 0-52, ~250 T. canis eggs on Day 0, all treatment groups, expected by the end of the study period. The text has this: Efficacy of Monepantel Administered per os, i.e. by Mouth, to Dogs for the Treatment and Control of Toxocara canis.
Methods: A pool of dogs are to be preliminarily examined to ensure suitability for the example. Dogs must be within normal weight ranges for breed, in good health with no known history of serious disease and neither pregnant nor lactating. On Day-6, a fecal examination may be performed to confirm the absence of pre-existing infection by any nematode species. Dogs exposed to an anthelmintic within 30 days prior to Day-7 are to be excluded.
16 eligible dogs are to be weighed on Day-1 and randomly assigned to 1 of 4 groups by weight (1 control group and 3 treatment groups).
Dogs are to be housed indoors to help prevent naturally occurring parasitic worm infections. Dogs may be pair housed, if compatible, or individually housed until allocation to treatment groups on Day 0. Thereafter, the dogs are to be housed individually. Dogs are to be fed a standard commercially available dog food at the recommended rates and should be allowed access to potable water ad libitum.
Each dog in a treatment group (test groups 2-4) is to receive by mouth a liquid formulation of monepantel. The dosage is to be administered to the dogs on each of days 0-52 according to test groups, see TABLE 4.
Dogs in the control group are not to receive any anthelmintics or any other worm control treatment. […]

Another assay concerns Ancylostoma caninum. Briefly: Efficacy of monepantel per os to dogs against Ancylostoma caninum (fecal egg counts). As to conditions: oral liquid formulation, 0.25 or 0.5 mg/kg daily Days 0-22, ~300 A. caninum larvae on Day 0, expected within approximately 2 weeks. An excerpt: Efficacy of Monepantel Administered per os, i.e. by Mouth, to Dogs for the Treatment and Control of Ancylostoma caninum. Methods: A pool of 12 dogs are to be preliminarily examined to ensure suitability for the example. Dogs must be within normal weight ranges for breed, in good health with no known history of serious disease and neither pregnant nor lactating. Between Day-7 and Day-3, a fecal examination may be performed to confirm the absence of pre-existing infection by any nematode species. Dogs exposed to an anthelmintic within 30 days prior to Day-7 are to be excluded. Dogs are to be weighed on Day-2 and randomly assigned to 1 of 3 groups by weight (1 control group and 2 treatment groups). Dogs may be pair housed, if compatible, or individually housed until allocation to treatment groups on Day 0. Thereafter, the dogs are to be housed individually. Dogs are to be fed a standard commercially available dog food at the recommended rates and should be allowed access to potable water ad libitum. Each dog in a treatment group (test groups 2-3) is to receive by mouth a liquid formulation of monepantel. The dosage is to be administered to the dogs on each of days 0-22 according to test groups, see TABLE 3. [table] Dogs in the control group are not to receive any anthelmintics or any other worm control treatment. Dogs are to be fasted overnight. […]

The test system of assay [2] is Toxocara canis. Briefly: Efficacy of fenbendazole per os to dogs against Toxocara canis infections (fecal egg counts). The settings on record: oral liquid formulation, 0.5, 1.0 or 1.5 mg/kg daily Days 0-52 (at least treatment groups 2-4), ~250 T. canis eggs on Day 0, expected by the end of the study period. An excerpt:
Efficacy of Fenbendazole Administered per os, i.e. by Mouth, to Dogs for the Treatment and Control of Toxocara canis Infections. Methods: A pool of dogs are to be preliminarily examined to ensure suitability for the example. Dogs must be within normal weight ranges for breed, in good health with no known history of serious disease and neither pregnant nor lactating. Between Day-6 and Day-3, a fecal examination may be performed to confirm the absence of pre-existing infection by any nematode species. Dogs exposed to an anthelmintic within 30 days prior to Day-7 are to be excluded. 20 eligible dogs are to be weighed on Day-2 or Day-1 and randomly assigned to 1 of 5 groups by weight (1 control group and 4 treatment groups). Dogs are to be housed indoors to help prevent naturally occurring parasitic worm infections. Dogs may be pair housed, if compatible, or individually housed until allocation to treatment groups on Day 0. Thereafter, the dogs are to be housed individually. Dogs are to be fed a standard commercially available dog food at the recommended rates and should be allowed access to potable water ad libitum. Each dog in a treatment group (test groups 2-5) is to receive by mouth a liquid formulation of fenbendazole. The dosage is to be administered to the dogs on each of days 0-52 according to test groups, see TABLE 5. [table] […]

As for `C[C@](C#N)(COc1cc(C#N)ccc1C(F)(F)F)NC(=O)c1ccc(SC(F)(F)F)cc1` [Monepantel, N-[(2S)-2-cyano-1-[5-cyano-2-(trifluoromethyl)phenoxy]propan-2-yl]-4-(trifluoromethylsulfanyl)benzamide], the “efficacy (fecal egg count reduction)” value in the assay with Toxocara canis [1] amounted to 100%. The “Percent reduction in fecal egg counts” value in the assay on Ancylostoma caninum is listed as 100%.
On to `COC(=O)Nc1nc2ccc(Sc3ccccc3)cc2[nH]1` [Fenbendazole, methyl N-(6-phenylsulfanyl-1H-benzimidazol-2-yl) carbamate], for which the “efficacy (fecal egg count reduction)” value in the assay on Toxocara canis [2] came out at 100%.
